From ChEMBL document CHEMBL3272144, “Application of the Free-Wilson technique to structurally related series of homologues. Quantitative structure-activity relationship studies of narcotic analgetics” (1977)

Species: Mus musculus
Assay: Analgesic activity in mouse by hot-plate method
Format: functional

**Q.** With CCCCCC[C@@]12CCN(C)C(Cc3ccc(O)cc31)[C@H]2CO (mixture of isomers) as the compound, how does the “log(1/C)” value read?
**A.** 1.53

**Q.** How did the “log(1/C)” value turn out when CCC[C@@]12CCN(C)C(Cc3ccccc31)[C@H]2C (mixture of isomers) was run?
**A.** 1.76

**Q.** CCC[C@@]12CCN(C)C(Cc3ccc(O)cc31)[C@@H]2C (stereo in doubt; 94) was tested. Which “log(1/C)” value did it give?
**A.** 1.38

**Q.** CC[C@H]1C2Cc3ccc(OC(C)=O)cc3[C@@]1(CC)CCN2C (mixture of isomers) was tested. Which “log(1/C)” value did it give?
**A.** 2.36

**Q.** For CN1CC[C@]2(C)c3cc(O)ccc3CC1[C@@H]2O (mixture of isomers), which “log(1/C)” value is on record?
**A.** 0.9

**Q.** How did the “log(1/C)” value turn out when CCC[C@@]12CCN(CCc3ccccc3)C(Cc3ccc(O)cc31)[C@@H]2C (mixture of isomers) was run?
**A.** 2.92

**Q.** Which “log(1/C)” value does the source give for CC[C@@]12CCN(C)C(Cc3ccc(O)cc31)[C@@]2(C)O (mixture of isomers) here?
**A.** 2.61

**Q.** For CC[C@@]12CCN(C)C(Cc3ccc(OC(C)=O)cc31)[C@@H]2OC(C)=O (mixture of isomers), which “log(1/C)” value is on record?
**A.** 2.53

**Q.** c1ccc2c(c1)CC1C[C@@H]2CCN1 (mixture of isomers) was tested. Which “log(1/C)” value did it give?
**A.** 1.31

**Q.** How did the “log(1/C)” value turn out when C[C@@]12CCN(CCc3ccccc3)C(Cc3ccc(O)cc31)[C@@H]2O (mixture of isomers) was run?
**A.** 2.99

**Q.** With CN1CC[C@@]2(c3ccccc3)CC1Cc1ccccc12 (stereo in doubt; 89) as the compound, how does the “log(1/C)” value read?
**A.** 1.87
